Patent publication US20090304692A1, “TRIAZINE COMPOUNDS AS PI3 KINASE AND MTOR INHIBITORS” (Wyeth, priority 2008, published 2009)
Where “and” joins values, the source holds several entries; their conditions need not be identical. Equal values may be shown once. Read-outs that look alike come from different tables or passages of the source.

How the values were obtained:
Human mTOR (FLAG-TOR) = Human mTOR (FLAG-TOR) (Homo sapiens, UniProt P42345); assay: mTOR kinase assay (DELFIA format, purified enzyme); assay type: biochemical; settings: read-out: IC50 mTOR
PI3K-γ = PI3K-γ (Homo sapiens, UniProt P48736); assay: PI3K-gamma fluorescence polarization assay
PI3K-α = PI3K-α (Homo sapiens, UniProt P42336); assay: PI3K-alpha fluorescence polarization assay
Sequence of PI3K-α (P42336 whole entry, species assumed): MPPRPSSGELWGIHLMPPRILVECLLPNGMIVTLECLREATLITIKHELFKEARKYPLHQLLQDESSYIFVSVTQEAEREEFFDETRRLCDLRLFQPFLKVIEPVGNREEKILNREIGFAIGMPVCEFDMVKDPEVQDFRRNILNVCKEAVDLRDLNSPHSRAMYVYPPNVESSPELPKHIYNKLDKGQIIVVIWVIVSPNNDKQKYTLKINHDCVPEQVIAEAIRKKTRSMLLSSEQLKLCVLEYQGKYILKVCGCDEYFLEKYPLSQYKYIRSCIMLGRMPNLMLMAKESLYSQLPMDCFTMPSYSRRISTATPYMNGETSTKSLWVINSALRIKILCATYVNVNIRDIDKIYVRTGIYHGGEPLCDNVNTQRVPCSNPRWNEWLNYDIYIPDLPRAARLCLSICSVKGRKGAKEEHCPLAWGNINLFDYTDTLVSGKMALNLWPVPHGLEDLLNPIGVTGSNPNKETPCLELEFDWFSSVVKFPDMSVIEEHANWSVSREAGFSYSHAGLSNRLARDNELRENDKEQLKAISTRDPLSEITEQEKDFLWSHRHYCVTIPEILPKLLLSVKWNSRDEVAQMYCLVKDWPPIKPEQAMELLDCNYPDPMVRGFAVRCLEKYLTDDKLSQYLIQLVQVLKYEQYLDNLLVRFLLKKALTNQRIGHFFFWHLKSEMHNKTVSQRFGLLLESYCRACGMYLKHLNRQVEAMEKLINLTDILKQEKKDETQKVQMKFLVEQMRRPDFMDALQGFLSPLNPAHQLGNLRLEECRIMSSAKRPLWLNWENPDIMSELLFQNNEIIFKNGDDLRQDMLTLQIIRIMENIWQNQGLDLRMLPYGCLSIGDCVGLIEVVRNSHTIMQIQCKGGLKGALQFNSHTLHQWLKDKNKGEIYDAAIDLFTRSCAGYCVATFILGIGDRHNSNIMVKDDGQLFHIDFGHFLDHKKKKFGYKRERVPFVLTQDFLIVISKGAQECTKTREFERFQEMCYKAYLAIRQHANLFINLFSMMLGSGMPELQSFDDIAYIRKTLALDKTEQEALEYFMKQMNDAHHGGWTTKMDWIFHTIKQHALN
Sequence of PI3K-α (P27986 whole entry partner, species assumed): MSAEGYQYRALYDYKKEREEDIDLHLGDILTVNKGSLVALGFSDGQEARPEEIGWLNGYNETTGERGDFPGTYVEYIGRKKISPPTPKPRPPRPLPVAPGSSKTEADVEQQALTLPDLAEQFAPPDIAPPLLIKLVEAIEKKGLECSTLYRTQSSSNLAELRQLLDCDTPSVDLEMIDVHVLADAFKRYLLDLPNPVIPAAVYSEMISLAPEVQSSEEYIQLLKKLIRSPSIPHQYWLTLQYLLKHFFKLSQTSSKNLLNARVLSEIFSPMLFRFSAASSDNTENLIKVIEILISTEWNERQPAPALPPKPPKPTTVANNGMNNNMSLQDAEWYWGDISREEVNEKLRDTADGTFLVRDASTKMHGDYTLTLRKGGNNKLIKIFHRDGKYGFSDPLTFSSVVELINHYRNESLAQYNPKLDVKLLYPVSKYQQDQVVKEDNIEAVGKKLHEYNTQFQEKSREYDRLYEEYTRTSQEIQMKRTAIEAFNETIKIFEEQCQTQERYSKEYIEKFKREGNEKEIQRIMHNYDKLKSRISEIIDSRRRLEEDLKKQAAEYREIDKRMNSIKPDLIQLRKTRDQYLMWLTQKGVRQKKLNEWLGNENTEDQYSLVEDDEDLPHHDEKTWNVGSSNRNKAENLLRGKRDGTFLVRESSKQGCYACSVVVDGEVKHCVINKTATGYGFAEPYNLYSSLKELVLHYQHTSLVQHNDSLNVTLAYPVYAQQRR

Sequence of Human mTOR (FLAG-TOR) (P42345 1360-2549 limits assumed): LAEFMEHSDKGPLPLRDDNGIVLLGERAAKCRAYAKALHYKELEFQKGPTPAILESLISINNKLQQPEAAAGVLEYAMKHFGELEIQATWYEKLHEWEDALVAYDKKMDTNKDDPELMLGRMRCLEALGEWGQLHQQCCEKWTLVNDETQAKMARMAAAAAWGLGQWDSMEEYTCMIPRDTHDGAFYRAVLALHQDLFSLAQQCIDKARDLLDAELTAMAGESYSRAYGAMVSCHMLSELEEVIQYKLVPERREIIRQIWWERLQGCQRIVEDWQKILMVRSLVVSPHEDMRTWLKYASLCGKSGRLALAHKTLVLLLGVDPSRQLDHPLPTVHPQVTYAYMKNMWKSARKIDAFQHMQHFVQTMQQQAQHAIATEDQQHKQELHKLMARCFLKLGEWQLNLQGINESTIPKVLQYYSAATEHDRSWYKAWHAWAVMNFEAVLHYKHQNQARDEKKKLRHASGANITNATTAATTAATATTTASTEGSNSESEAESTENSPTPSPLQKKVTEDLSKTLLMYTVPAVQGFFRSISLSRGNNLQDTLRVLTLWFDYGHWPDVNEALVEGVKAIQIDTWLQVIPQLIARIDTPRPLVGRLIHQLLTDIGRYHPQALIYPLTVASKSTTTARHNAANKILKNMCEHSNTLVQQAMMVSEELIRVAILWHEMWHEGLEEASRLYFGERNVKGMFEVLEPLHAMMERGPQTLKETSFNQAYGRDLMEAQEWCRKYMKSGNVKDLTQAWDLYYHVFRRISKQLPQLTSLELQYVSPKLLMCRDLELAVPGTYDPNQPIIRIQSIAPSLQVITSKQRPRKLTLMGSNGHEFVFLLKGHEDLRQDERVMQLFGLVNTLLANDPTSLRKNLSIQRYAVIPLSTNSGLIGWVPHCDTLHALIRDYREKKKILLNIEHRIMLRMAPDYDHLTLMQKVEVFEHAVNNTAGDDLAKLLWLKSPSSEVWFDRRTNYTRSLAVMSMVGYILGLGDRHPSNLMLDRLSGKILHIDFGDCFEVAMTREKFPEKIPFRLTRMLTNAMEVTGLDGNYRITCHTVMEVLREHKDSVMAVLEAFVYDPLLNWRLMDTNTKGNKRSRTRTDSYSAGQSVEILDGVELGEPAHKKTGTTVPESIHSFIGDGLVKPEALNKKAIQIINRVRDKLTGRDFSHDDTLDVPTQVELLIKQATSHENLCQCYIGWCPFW
Sequence of PI3K-γ (P48736 whole entry, species assumed): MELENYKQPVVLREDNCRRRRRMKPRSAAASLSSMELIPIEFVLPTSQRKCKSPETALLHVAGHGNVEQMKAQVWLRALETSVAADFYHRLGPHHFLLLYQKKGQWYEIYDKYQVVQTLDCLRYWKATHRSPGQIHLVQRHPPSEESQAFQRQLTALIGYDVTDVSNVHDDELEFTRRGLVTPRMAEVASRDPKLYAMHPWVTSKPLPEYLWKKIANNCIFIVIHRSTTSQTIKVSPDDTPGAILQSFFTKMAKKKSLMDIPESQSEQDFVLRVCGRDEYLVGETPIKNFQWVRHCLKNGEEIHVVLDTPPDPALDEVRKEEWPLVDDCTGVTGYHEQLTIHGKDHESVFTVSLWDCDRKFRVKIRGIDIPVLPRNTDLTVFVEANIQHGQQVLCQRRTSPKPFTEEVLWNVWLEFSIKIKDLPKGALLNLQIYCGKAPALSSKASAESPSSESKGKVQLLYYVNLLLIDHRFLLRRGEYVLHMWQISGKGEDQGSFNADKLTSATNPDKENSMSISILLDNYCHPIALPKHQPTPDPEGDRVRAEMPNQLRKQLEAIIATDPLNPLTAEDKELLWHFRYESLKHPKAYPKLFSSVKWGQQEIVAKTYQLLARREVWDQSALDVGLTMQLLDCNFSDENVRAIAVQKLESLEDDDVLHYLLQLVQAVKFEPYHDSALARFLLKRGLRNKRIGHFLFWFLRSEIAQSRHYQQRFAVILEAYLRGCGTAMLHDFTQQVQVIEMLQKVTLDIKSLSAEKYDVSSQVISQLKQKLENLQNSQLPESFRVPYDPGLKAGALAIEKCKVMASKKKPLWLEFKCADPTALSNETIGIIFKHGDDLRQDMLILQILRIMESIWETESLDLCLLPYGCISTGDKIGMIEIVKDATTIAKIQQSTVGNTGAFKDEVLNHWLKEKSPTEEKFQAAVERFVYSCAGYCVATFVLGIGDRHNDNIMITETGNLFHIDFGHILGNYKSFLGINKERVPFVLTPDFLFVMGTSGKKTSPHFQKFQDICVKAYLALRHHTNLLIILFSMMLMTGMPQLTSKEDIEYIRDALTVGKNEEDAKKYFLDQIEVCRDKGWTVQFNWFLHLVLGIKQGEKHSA

Molecule | IC50 (Human mTOR (FLAG-TOR)) | IC50 (PI3K-γ; read-out: IC50 PI3Kγ) | IC50 (PI3K-α; read-out: IC50 PI3Kα) | also measured
1-(3-{[4-(dimethylamino)piperidin-1-yl]carbonyl}phenyl)-3-{4-[4-(4-methylphenyl)-6-morpholin-4-yl-1,3,5-triazin-2-yl]phenyl}urea [Example 579] | 120 nM | 658 nM | 462 nM | –
1-(4-(4-(3-oxa-8-azabicyclo[3.2.1]octan-8-yl)-6-(piperidin-4-ylamino)-1,3,5-triazin-2-yl)phenyl)-3-ethylurea [Example 363] | 0.77 nM | 7140 nM | 1100 nM | –
COc1ccc(NC(=O)Nc2ccc(-c3nc(N4CCOCC4)nc(N4CCOCC4)n3)cc2)c(OC)c1 [Example 7, 1-(2,4-dimethoxyphenyl)-3-[4-(4,6-dimorpholin-4-yl-1,3,5-triazin-2-yl)phenyl]-urea] | > 4000 nM | – | – | IC50 (PI3K-α): > 10000 nM
CCNC(=O)Nc1ccc(-c2nc(N3CCOCC3)nc(N3CCOCC3)n2)cc1 [Example 12, 1-[4-(4,6-dimorpholin-4-yl-1,3,5-triazin-2-yl)phenyl]-3-ethylurea] | 11 nM | 815 nM | 248 nM | –
Cc1ccc(NC(=O)Nc2ccc(-c3nc(NC4CN(C(=O)OC(C)(C)C)C4)nc(N4CCOCC4)n3)cc2)cc1 [Example 16, tert-butyl 3-{[4-(4-{[(4-methylphenyl)carbamoyl]amino}phenyl)-6-morpholin-4-yl-1,3,5-triazin-2-yl]amino}azetidine-1-carboxylate] | 12 nM | – | – | IC50 (PI3K-α): > 10000 nM
Nc1ccc(-c2nc(N3CCOCC3)nc(N3C4CCC3COC4)n2)cc1 [Example 33, 4-[4-morpholin-4-yl-6-(3-oxa-8-azabicyclo[3.2.1]oct-8-yl)-1,3,5-triazin-2-yl]aniline] | 91 nM | – | 2550 nM | IC50 (PI3K-γ): > 10000 nM
CC(C)NC(=O)Nc1ccc(-c2nc(N3CCOCC3)nc(N3C4CCC3COC4)n2)cc1 [Example 44, 1-isopropyl-3-{4-[4-morpholin-4-yl-6-(3-oxa-8-azabicyclo[3.2.1]oct-8-yl)-1,3,5-triazin-2-yl]phenyl}urea] | 13.5 nM | 9500 nM | 1580 nM | –
O=C(NCCO)Nc1ccc(-c2nc(N3CCOCC3)nc(N3C4CCC3COC4)n2)cc1 [Example 45, 1-(2-hydroxyethyl)-3-{4-[4-morpholin-4-yl-6-(3-oxa-8-azabicyclo[3.2.1]oct-8-yl)-1,3,5-triazin-2-yl]phenyl}urea] | 3.6 nM | 2080 nM | 504 nM | –
CN(C)CCNC(=O)Nc1ccc(-c2nc(N3CCOCC3)nc(N3CCC4(CC3)OCCO4)n2)cc1 [Example 46, 1-[2-(dimethylamino)ethyl]-3-{4-[4-(1,4-dioxa-8-azaspiro[4.5]dec-8-yl)-6-morpholin-4-yl-1,3,5-triazin-2-yl]phenyl}urea] | 24 nM and 20 nM | – | – | IC50 (PI3K-γ; read-out: IC50 PI3Kγ, listed as 136): 4920 nM; IC50 (PI3K-γ; read-out: IC50 PI3Kγ, listed as 711): 4920 nM; IC50 (PI3K-α; read-out: IC50 PI3Kα, listed as 136): 208 nM; IC50 (PI3K-α; read-out: IC50 PI3Kα, listed as 711): 208 nM
O=C(Nc1ccc(-c2nc(N3CCOCC3)nc(N3CCOCC3)n2)cc1)Nc1ccc(C(F)(F)F)cn1 [Example 55, 1-[4-(4,6-dimorpholin-4-yl-1,3,5-triazin-2-yl)phenyl]-3-[5-(trifluoromethyl)pyridin-2-yl]urea] | 50 nM | 1580 nM | 205 nM | –
O=C(Nc1ccc(-c2nc(N3CCOCC3)nc(N3CCOCC3)n2)cc1)Nc1ccc(C(O)(C(F)(F)F)C(F)(F)F)cc1 [Example 56, 1-[4-(4,6-dimorpholin-4-yl-1,3,5-triazin-2-yl)phenyl]-3-{4-[2,2,2-trifluoro-1-hydroxy-1-(trifluoromethyl)ethyl]phenyl}urea] | 15 nM and 10 nM | – | – | –
CNCCNC(=O)Nc1ccc(-c2nc(OC3CCOCC3)nc(N3CCOCC3)n2)cc1 [Example 64, 1-[2-(methylamino)ethyl]-3-{4-[4-morpholin-4-yl-6-(tetrahydro-2H-pyran-4-yloxy)-1,3,5-triazin-2-yl]phenyl}urea] | 1500 nM | 1190 nM | 1460 nM | –
CN1CCC(NC(=O)Nc2ccc(-c3nc(N4CCOCC4)nc(N4CCOCC4)n3)cc2)CC1 [Example 98, 1-[4-(4,6-dimorpholin-4-yl-1,3,5-triazin-2-yl)phenyl]-3-(1-methylpiperidin-4-yl)urea] | 2100 nM | 9000 nM | 1350 nM | –
C[C@H]1COCCN1c1nc(-c2ccc(NC(=O)NC3CCN(C)CC3)cc2)nc(N2CCOCC2)n1 [Example 99, 1-(4-{4-[(3S)-3-methylmorpholin-4-yl]-6-morpholin-4-yl-1,3,5-triazin-2-yl}phenyl)-3-(1-methylpiperidin-4-yl)urea] | 460 nM | 7500 nM | 1520 nM | –
Nc1ccc(-c2nc(N3CCOCC3)nc(N3CCC4(CC3)OCCO4)n2)cc1 [Example 129, 4-[4-(1,4-dioxa-8-azaspiro[4.5]dec-8-yl)-6-morpholin-4-yl-1,3,5-triazin-2-yl]aniline] | 2350 nM | – | 7220 nM | IC50 (PI3K-γ): > 10000 nM
COC(=O)c1ccc(NC(=O)Nc2ccc(-c3nc(C)nc(N4CCOCC4)n3)cc2)cc1 [Example 162, methyl 4-({[4-(4-methyl-6-morpholin-4-yl-1,3,5-triazin-2-yl)phenyl]carbamoyl}amino)benzoate] | 23 nM | 495 nM | 10 nM | –
Cc1nc(-c2ccc(NC(=O)Nc3ccc(C(=O)NC4CCN(C)CC4)cc3)cc2)nc(N2CCOCC2)n1 [Example 164, 4-({[4-(4-methyl-6-morpholin-4-yl-1,3,5-triazin-2-yl)phenyl]carbamoyl}amino)-N-(1-methylpiperidin-4-yl)benzamide] | – | 1380 nM | 378 nM | –
O=C(Nc1ccc(C(=O)N2CCC(N3CCCC3)CC2)cc1)Nc1ccc(-c2nc(N3CCOCC3)nc(N3C[C@@H]4C[C@H]3CO4)n2)cc1 [Example 210, 1-(4-{4-morpholin-4-yl-6-[(1S,4S)-2-oxa-5-azabicyclo[2.2.1]hept-5-yl]-1,3,5-triazin-2-yl}phenyl)-3-{4-[(4-pyrrolidin-1-ylpiperidin-1-yl)carbonyl]phenyl}urea] | – | 31 nM | 6 nM | –
CN1CCN(c2ccc(NC(=O)Nc3ccc(-c4nc(N5C[C@@H]6C[C@H]5CO6)nc(N5C[C@@H]6C[C@H]5CO6)n4)cc3)cc2)CC1 [Example 312, 1-{4-[4,6-di-(1S,4S)-2-oxa-5-azabicyclo[2.2.1]hept-5-yl-1,3,5-triazin-2-yl]phenyl}-3-[4-(4-methylpiperazin-1-yl)phenyl]urea] | – | 10000 nM | 3440 nM | –
C[C@@H]1COCCN1c1nc(-c2ccc(NC(=O)Nc3ccc(N4CCN(C)CC4)nc3)cc2)nc(C2CCOCC2)n1 [Example 433, (R)-1-(4-(4-(3-methylmorpholino)-6-(tetrahydro-2H-pyran-4-yl)-1,3,5-triazin-2-yl)phenyl)-3-(6-(4-methylpiperazin-1-yl)pyridin-3-yl)urea] | – | 1510 nM | 220 nM | –
CNC(=O)Nc1ccc(-c2nc(-c3ccc(NC(=O)Nc4ccc(C(N)=O)cc4)cc3)nc(N3CCOCC3)n2)cc1 [Example 462, 4-({[4-(4-{4-[(methylcarbamoyl)amino]phenyl}-6-morpholin-4-yl-1,3,5-triazin-2-yl)phenyl]carbamoyl}amino) benzamide] | < 1 nM | – | – | –
CN(C)[C@@H]1CCN(C(=O)c2ccc(NC(=O)Nc3ccc(-c4nc(N5CCOCC5)nc(N5CCOCC5)n4)cc3)cc2)C1 [Example 484, 1-(4-{[(3R)-3-(dimethylamino)pyrrolidin-1-yl]carbonyl}phenyl)-3-[4-(4,6-dimorpholin-4-yl-1,3,5-triazin-2-yl)phenyl]urea] | 0.63 nM | – | 1 nM | –
CN(C)[C@H]1CCN(C(=O)c2ccc(NC(=O)Nc3ccc(-c4nc(N5CCOCC5)nc(N5CCOCC5)n4)cc3)cc2)C1 [Example 485, 1-(4-{[(3S)-3-(dimethylamino)pyrrolidin-1-yl]carbonyl}phenyl)-3-[4-(4,6-dimorpholin-4-yl-1,3,5-triazin-2-yl)phenyl]urea] | 1.25 nM | – | 1.4 nM | –
CN(C)[C@H]1CCN(C(=O)c2ccc(NC(=O)Nc3ccc(-c4nc(N5CCOCC5)nc(N5C6CCC5COC6)n4)cc3)cc2)C1 [Example 516, 1-(4-{[(3S)-3-(dimethylamino)pyrrolidin-1-yl]carbonyl}phenyl)-3-{4-[4-morpholin-4-yl-6-(3-oxa-8-azabicyclo[3.2.1]oct-8-yl)-1,3,5-triazin-2-yl]phenyl}urea] | – | 17 nM | 2.1 nM | IC50 (PI3K-α; read-out: IC50 PI3Kα, listed as 824): 2 nM; IC50 (PI3K-α; read-out: IC50 PI3Kα, listed as 827): 2.15 nM
CC(C)N1CCN(C(=O)c2ccc(NC(=O)Nc3ccc(-c4nc(C5CCOCC5)nc(N5CCOCC5)n4)cc3)cc2)CC1 [Example 523, 1-(4-{[4-(1-methylethyl)piperazin-1-yl]carbonyl}phenyl)-3-{4-[4-morpholin-4-yl-6-(tetrahydro-2H-pyran-4-yl)-1,3,5-triazin-2-yl]phenyl}urea] | 0.43 nM | – | – | –
Cc1ccc(-c2nc(-c3ccc(NC(=O)Nc4cccc(C(=O)O)c4)cc3)nc(N3CCOCC3)n2)cc1 [Example 577, 3-[({4-[4-(4-methylphenyl)-6-morpholin-4-yl-1,3,5-triazin-2-yl]phenyl}carbamoyl)amino]benzoic acid] | – | 104 nM | 63 nM | –
O=C(Nc1ccncc1)Nc1ccc(-c2nc(NS(=O)(=O)c3ccccc3)nc(N3CCOCC3)n2)cc1 [Example 781, N-(4-morpholin-4-yl-6-{4-[(pyridin-4-ylcarbamoyl)amino]phenyl}-1,3,5-triazin-2-yl)benzenesulfonamide] | – | 374 nM | 136 nM | –
C[C@H]1COCCN1c1nc(-c2ccc(NC(=O)Nc3ccc(C(=O)N4CCNCC4)cc3)cc2)nc(N2C3CCC2COC3)n1 [Example 838, 1-(4-{4-[(3S)-3-methylmorpholin-4-yl]-6-(3-oxa-8-azabicyclo[3.2.1]oct-8-yl)-1,3,5-triazin-2-yl}phenyl)-3-[4-(piperazin-1-ylcarbonyl)phenyl]urea] | – | 69.5 nM | 4 nM | –
